# In patent US20260116884A1, “PROTAC CHIMERIC COMPOUND, PREPARATION METHOD THEREFOR AND USE THEREOF” (HANGZHOU ZHONGMEIHUADONG PHARMACEUTICAL CO., LTD., priority 2022, published 2026):
# pEC50, pIC50: −log10 of the molar value.
# Target: T1, human HPK1 (Homo sapiens, UniProt Q92918)
# Assay: Assay of in vitro HPK1 enzymatic activity (ADP-Glo)
# Assay type: biochemical
# Conditions: 7 nM kinase, 20 uM ATP
# Procedure: Compounds were evaluated for their ability to inhibit human HPK1 by IC50 determination using the ADP-Glo method to measure the kinase activity.
# Buffer conditions of the enzyme: 50 mM Hepes (pH 7.5), 10 mM MgCl2, 1 mM EGTA, 0.01% Brij35, 2 mM DTT.
# Preparation of the Kinase and substrate mixture: the working concentration of the kinase in the HPK1 reaction solution was 7 nM and the working concentration of ATP was 20 uM.
# The compound was diluted with DMSO in a dilution plate, with a maximum starting concentration of 1 uM and 10 concentration gradient points (4-fold dilution).
# Each of the above 10 concentration gradient points of the compound was then diluted 50-fold into the kinase reaction buffer and shaken on a shaker for 20 min. The kinase was prepared in an enzyme reaction buffer and 2 μl of the HPK1 kinase was added per well of the reaction plate at a HPK1 kinase concentration of 7 nM.
# 1 μl of diluted compound in the buffer was added per well, and the plate was sealed with a plate sealing film, centrifuged at 1000 g for 30 seconds, and left at room temperature for 10 minutes. An ATP solution was prepared with an enzyme reaction buffer and 2 μl of the ATP solution was added to the reaction plate (the working concentration of ATP was 20 uM). The plate was sealed with a plate sealing film, centrifuged at 1000 g for 30 seconds, and reacted at room temperature for 60 minutes. 4 μL of ADP-Glu was transferred to a 384 reaction plate, centrifuged at 1000 rpm/min for 1 min, and incubated at 25° C. for 40 min. 8 μL of the Detection solution was transferred to a 384 reaction plate, centrifuged at 1000 rpm/min for 1 min, and incubated at 25° C. for 40 min. The RLU (Relative luminescence unit) signal was read using a BMG microplate reader, and the signal intensity was used to characterize the activity level of the kinase.
# The kinase activity data was expressed by comparing the kinase activity of the test compound and the blank group (containing only DMSO), and the IC50 value was obtained by curve fitting using the Prism software (GraphPad7.0).
# T1 sequence (Q92918 whole entry): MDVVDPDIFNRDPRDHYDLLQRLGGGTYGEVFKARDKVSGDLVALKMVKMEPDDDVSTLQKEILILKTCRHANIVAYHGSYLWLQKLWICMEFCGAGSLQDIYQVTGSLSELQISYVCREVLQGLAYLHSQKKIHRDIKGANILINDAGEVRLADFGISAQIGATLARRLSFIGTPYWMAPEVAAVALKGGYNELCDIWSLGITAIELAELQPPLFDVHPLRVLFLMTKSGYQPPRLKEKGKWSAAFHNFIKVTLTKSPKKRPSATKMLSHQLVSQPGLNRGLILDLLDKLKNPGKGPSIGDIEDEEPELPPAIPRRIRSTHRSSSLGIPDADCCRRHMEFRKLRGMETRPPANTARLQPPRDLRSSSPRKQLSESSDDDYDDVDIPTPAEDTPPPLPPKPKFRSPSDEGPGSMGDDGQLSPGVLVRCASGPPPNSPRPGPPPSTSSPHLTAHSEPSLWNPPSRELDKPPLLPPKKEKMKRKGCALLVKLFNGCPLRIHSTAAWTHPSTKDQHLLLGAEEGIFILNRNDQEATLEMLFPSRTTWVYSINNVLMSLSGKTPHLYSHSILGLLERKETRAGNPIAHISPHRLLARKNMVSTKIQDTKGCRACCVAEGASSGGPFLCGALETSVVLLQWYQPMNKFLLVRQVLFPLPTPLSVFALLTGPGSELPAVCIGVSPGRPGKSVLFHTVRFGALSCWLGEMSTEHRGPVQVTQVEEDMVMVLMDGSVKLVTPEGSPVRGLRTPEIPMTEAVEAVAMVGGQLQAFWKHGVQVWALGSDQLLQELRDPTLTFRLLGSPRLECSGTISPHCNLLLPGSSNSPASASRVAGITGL
row,pIC50,Structure (SMILES)
1,8.19,CCN1CCC(n2cc(-c3c[nH]c4ncc(-c5ccc(OCCN6CCC(NC(=O)c7ccc(Cl)c(N8CCC(=O)NC8=O)c7)CC6)nc5)nc34)cn2)CC1 [Compound C023]
2,8.70,CCN1CCC(n2cc(-c3c[nH]c4ncc(-c5cnc(OC6CCN(C(=O)c7cccc(N8CCC(=O)NC8=O)c7)CC6)c(C)c5)nc34)cn2)CC1 [Compound C019]
3,8.80,CCN1CCC(n2cc(-c3c[nH]c4ncc(-c5ccc(N6CCN(C(=O)CCCCCNc7cccc8c7C(=O)N(C7CCC(=O)NC7=O)C8=O)CC6)nc5)nc34)cn2)CC1 (stereo not shown) [Compound C026]
4,8.28,CCN1CCC(n2cc(-c3c[nH]c4ncc(-c5cnc(OCC(=O)N6CCC(c7ccc(NC8CCC(=O)NC8=O)cc7)CC6)c(C)c5)nc34)cn2)CC1 (stereo not shown) [Compound C007]
5,8.12,CCN1CCC(n2cc(-c3c[nH]c4ncc(-c5ccc(OCCNC(=O)c6ccc(Cl)c(N7CCC(=O)NC7=O)c6)nc5)nc34)cn2)CC1 [Compound C033]
6,8.85,CCN1CCC(n2cc(-c3c[nH]c4ncc(-c5ccc(OCCCNC(=O)c6ccc(Cl)c(N7CCC(=O)NC7=O)c6)c(C)c5)nc34)cn2)CC1 [Compound C039]
7,8.82,CCN1CCC(n2cc(-c3c[nH]c4ncc(-c5cnc(OC6CCN(C(=O)c7cccc(N8CCC(=O)NC8=O)c7)CC6)c(C)c5)nc34)cn2)CC1 [Compound C014]
8,8.80,CCN1CCC(n2cc(-c3c[nH]c4ncc(-c5ccc(N6CCN(C7CCC(NC(=O)c8ccc(Cl)c(N9CCC(=O)NC9=O)c8)CC7)CC6)cc5)nc34)cn2)CC1 (stereo not shown) [Compound C029]
9,8.26,CCN1CCC(n2cc(-c3c[nH]c4ncc(-c5ccc(N6CCN(CC7CCN(C(=O)c8ccc(Cl)c(N9CCC(=O)NC9=O)c8)CC7)CC6)nc5)nc34)cn2)CC1 [Compound C020]
10,9.05,CCN1CCC(n2cc(-c3c[nH]c4ncc(-c5ccc(N6CCN(C7CCC(NC(=O)c8ccc(Cl)c(N9CCC(=O)NC9=O)c8)CC7)CC6)nc5)nc34)cn2)CC1 (stereo not shown) [Compound C027]
11,8.92,CCN1CCC(n2cc(-c3c[nH]c4ncc(-c5ccc(OCCNC(=O)c6ccc(Cl)c(N7CCC(=O)NC7=O)c6)c(C)c5)nc34)cn2)CC1 [Compound C034]
12,8.46,CCN1CCC(n2cc(-c3c[nH]c4ncc(-c5cnc(OCC(=O)Nc6ccc(NC7CCC(=O)NC7=O)cc6)c(F)c5)nc34)cn2)CC1 (stereo not shown) [Compound C008]
13,9.70,CCN1CCC(n2cc(-c3c[nH]c4ncc(-c5ccc(N6CCN(C7CC8(CCN(C(=O)c9ccc(Cl)c(N%10CCC(=O)NC%10=O)c9)CC8)C7)CC6)cc5)nc34)cn2)CC1 [Compound C030]
14,8.80,CCN1CCC(n2cc(-c3c[nH]c4ncc(-c5cnc(N6CCN(CC7CCN(C(=O)c8ccc(Cl)c(N9CCC(=O)NC9=O)c8)CC7)CC6)c(C)c5)nc34)cn2)CC1 [Compound C004]
15,8.72,CCN1CCC(n2cc(-c3c[nH]c4ncc(-c5cnc(N6CCN(CC7CN(c8cccc9c8C(=O)N(C8CCC(=O)NC8=O)C9=O)C7)CC6)c(C)c5)nc34)cn2)CC1 (stereo not shown) [Compound C012]
16,8.62,CCN1CCC(n2cc(-c3c[nH]c4ncc(-c5ccc(OCCNC6CCC(NC(=O)c7ccc(Cl)c(N8CCC(=O)NC8=O)c7)CC6)nc5)nc34)cn2)CC1 (stereo not shown) [Compound C028]
17,8.29,CCN1CCC(n2cc(-c3c[nH]c4ncc(-c5cnc(OCCN(C)C(=O)c6ccc(Cl)c(N7CCC(=O)NC7=O)c6)c(C)c5)nc34)cn2)CC1 [Compound C045]
18,8.06,CCN1CCC(n2cc(-c3c[nH]c4ncc(-c5ccc(N6CCN(C(=O)CCOCCNc7cccc8c7C(=O)N(C7CCC(=O)NC7=O)C8=O)CC6)nc5)nc34)cn2)CC1 (stereo not shown) [Compound C025]
19,7.82,CCN1CCC(n2cc(-c3c[nH]c4ncc(-c5cnc(OCCNC(=O)c6cccc(N7CCC(=O)NC7=O)c6)c(C)c5)nc34)cn2)CC1 [Compound C016]
20,8.06,CCN1CCC(n2cc(-c3c[nH]c4ncc(-c5cnc(NCCNC(=O)c6cccc(N7CCC(=O)NC7=O)c6)c(C)c5)nc34)cn2)CC1 [Compound C009]
21,8.21,CCN1CCC(n2cc(-c3c[nH]c4ncc(-c5cnc(OC6CN(C(=O)c7cccc(N8CCC(=O)NC8=O)c7)C6)c(C)c5)nc34)cn2)CC1 [Compound C015]
22,8.43,CCN1CCC(n2cc(-c3c[nH]c4ncc(-c5cnn(C6CCN(C7CCC(NC(=O)c8ccc(Cl)c(N9CCC(=O)NC9=O)c8)CC7)CC6)c5)nc34)cn2)CC1 (stereo not shown) [Compound C036]
23,7.56,CCN1CCC(n2cc(-c3c[nH]c4ncc(-c5cnc(OC(C)CNC(=O)c6ccc(Cl)c(N7CCC(=O)NC7=O)c6)c(C)c5)nc34)cn2)CC1 (stereo not shown) [Compound C043]
24,7.30,CCN1CCC(n2cc(-c3c[nH]c4ncc(-c5ccc(OC(C)CNC(=O)c6ccc(Cl)c(N7CCC(=O)NC7=O)c6)nc5)nc34)cn2)CC1 (stereo not shown) [Compound C044]

# Tested on: IL2 activation in human PBMC
# Assay: IL2 activity assay (ELISA) in human PBMC
# Assay type: cell-based
# Conditions: CD3/CD28 antibody, 24 h
# Procedure: The compound was diluted with DMSO in a dilution plate, with a maximum starting concentration of 10 μM, 8 concentration gradient points (3-fold dilution), and then added to the 96-well plate along with the addition of 5 µg/ml CD28 antibody. Incubation was performed for 24 h. • (3) The ELISA plate was washed twice with PBS, and an ELISA dilution was added at 100 µl/well. Then 100 μl of the standard and the incubated samples obtained in step 2 were added separately, and incubated for 2 h at room temperature. • (4) Each well was washed 3 times by adding with 400 μl washing buffer per well, and was finally blotted to dryness with a clean absorbent paper. • (5) 200 μl of the IL2 conjugate was added per well, covered with a fresh tape, and incubated for 2 h at room temperature. Step (4) was repeated. • (6) 200 μl of the substrate was added per well under the protection from light. The plate was incubated at room temperature for 20 min. • (7) 50 μL of a stop solution was added per well. The color of the wells should be from blue to yellow. Signals at […] were read by a microplate reader, and the signal intensity was used to characterize the activity level of IL2. EC50 values were obtained by fitting using the Prism software.
row,Structure (SMILES),pEC50
1,CCN1CCC(n2cc(-c3c[nH]c4ncc(-c5ccc(N6CCC(OC7CCN(C(=O)c8ccc(Cl)c(N9CCC(=O)NC9=O)c8)CC7)CC6)cc5)nc34)cn2)CC1 [Compound C131],7.38
2,CCN1CCC(n2cc(-c3c[nH]c4ncc(-c5ccc(N6CCC(OC7CCN(C(=O)c8ccc(Cl)c(N9CCC(=O)NC9=O)c8)CC7)CC6)c(C)c5)nc34)cn2)CC1 [Compound C132],7.46
3,CCN1CCC(n2cc(-c3c[nH]c4ncc(-c5ccc(N6CCC(OC7CCN(C(=O)c8ccc(Cl)c(N9CCC(=O)NC9=O)c8)CC7)CC6)c(F)c5)nc34)cn2)CC1 [Compound C134],7.38
4,CCN1CCC(n2cc(-c3c[nH]c4ncc(-c5ccc(N6CCC(CC7CCCN(C(=O)c8ccc(Cl)c(N9CCC(=O)NC9=O)c8)CC7)CC6)cc5)nc34)cn2)CC1 (stereo not shown) [Compound C122],7.22
5,CCN1CCC(n2cc(-c3c[nH]c4ncc(-c5ccc(N6CCC(C)(CN7CCN(C(=O)c8ccc(Cl)c(N9CCC(=O)NC9=O)c8)CC7)CC6)cc5)nc34)cn2)CC1 [Compound C139],6.98
6,CCN1CCC(n2cc(-c3c[nH]c4ncc(-c5ccc(N6CCC(CC7CCN(C(=O)c8ccc(Cl)c(N9CCC(=O)NC9=O)c8)CC7)CC6)c(F)c5)nc34)cn2)CC1 [Compound C135],7.36

# Target: T1, human HPK1
# Assay: HPK1 protein degradation assay (WB) in RAMOS cell line
# Assay type: cell-based
# Design: The RAMOS cell line was selected as the degradation cell line; endogenous in cells; host or cells: RAMOS
# Conditions: RAMOS cells, 16 h, Western blot
# Procedure: Degradation of HPK1 proteins and DC50/Dmax were determined by the WB method in order to evaluate the in vitro degradative ability of the compound.
# The RAMOS cell line was selected as the degradation cell line. Incubation Conditions: RMPI 1640 culture medium supplemented with 10% FBS, 37° C., 5% CO2.
# • (1) Plating cells: in a 6 cm dish with 4 ml of the culture medium, cells plated at 2×10^6 cells/dish. • (2) Drug addition: the compound (stock solution concentration: 10 mM) was diluted with DMSO in a dilution plate, with a maximum starting concentration of 10 μM and 7 concentration gradient points (3-fold dilution). 4 μl of each diluted solution was taken, added to a dish, and incubated for 16 h. • (3) Cells were harvested, added with a lysis buffer, and centrifuged at 12000 rpm/min for 20 min. The supernatant was collected. After quantification using a BCA quantification kit, 5× loading buffer was added to denature for 10 min. • (4) 10 μg of denatured protein was added to the SDS-PAGE gel. After electrophoresis and membrane transfer, the plate was blocked with 5% BSA for 1 h, incubate with the primary antibody at 4° C. overnight. After washing off the primary antibody, the secondary antibody was added, incubated at room temperature for 1 h, and washed off.
# Imaging: the membranes were scanned with a two-color fluorescence imaging system.
DC50,Dmax,Structure (SMILES)
386 nM,52%,CCN1CCC(n2cc(-c3c[nH]c4ncc(-c5ccc(N6CCC(OC7CCN(C(=O)c8ccc(Cl)c(N9CCC(=O)NC9=O)c8)CC7)CC6)cc5)nc34)cn2)CC1 [Compound C131]
29.3 nM,73%,CCN1CCC(n2cc(-c3c[nH]c4ncc(-c5ccc(N6CCC(OC7CCN(C(=O)c8ccc(Cl)c(N9CCC(=O)NC9=O)c8)CC7)CC6)c(C)c5)nc34)cn2)CC1 [Compound C132]
7.22 nM,78%,CCN1CCC(n2cc(-c3c[nH]c4ncc(-c5ccc(N6CCC(OC7CCN(C(=O)c8ccc(Cl)c(N9CCC(=O)NC9=O)c8)CC7)CC6)c(F)c5)nc34)cn2)CC1 [Compound C134]
52.4 nM,80.9%,CCN1CCC(n2cc(-c3c[nH]c4ncc(-c5ccc(N6CCC(C)(CN7CCN(C(=O)c8ccc(Cl)c(N9CCC(=O)NC9=O)c8)CC7)CC6)cc5)nc34)cn2)CC1 [Compound C139]
176 nM,63%,CCN1CCC(n2cc(-c3c[nH]c4ncc(-c5ccc(N6CCC(CC7CCN(C(=O)c8ccc(Cl)c(N9CCC(=O)NC9=O)c8)CC7)CC6)c(F)c5)nc34)cn2)CC1 [Compound C135]
